# Results taken from US12180191B1, “2-[(1H-benzimidazol-2-yl)imino]-5,5-diphenylimidazolidin-4-one as an antimicrobial compound” (KING FAISAL UNIVERSITY, priority 2023, dated 2024).
# Tests used:
# Assay type in all cases: cell-based
# [1] = system: Staphylococcus aureus; assay: Agar plate disc-diffusion, antibacterial inhibition zone; conditions: nutrient agar, 37° C., 48 hours
# Description: (§1) The agar plate disc-diffusion method was applied. Sterilized filter papers (6 mm in diameter) were wetted with 10 μL of a solution of 2-[(1H-benzimidazol-2-yl)imino]-5,5-diphenylimidazolidin-4-one (3) to be tested, containing 10 mg/mL in DMSO, and the discs were allowed to air dry. The discs were then placed onto the surface of agar plates (nutrient agar for bacteria and Sabouraud's dextrose agar for fungi) seeded with the test organism. Each plate contained 15 mL of the agar medium, previously seeded with 0.2 mL of the broth culture of each organism pregrown for 18 hours. The plates were incubated at 37° C. for 48 hours, and 72 hours for fungi. The inhibition zones were measured in millimeter. Discs impregnated with DMSO were used as a control, and its inhibition zone was subtracted from the tested compound actual inhibition zone.
# (§2) The results of the antimicrobial testing can be observed in Tables 1 and 2, below, with ciprofloxacin serving as a reference.
# [2] = system: Chrysosporium keratinophilum; assay: Agar plate disc-diffusion, antifungal inhibition zone; conditions: Sabouraud's dextrose agar, 72 hours
# Description: as §1, with “Sterilized filter papers (6 mm in diameter) were wetted with 10 μL of a solution of 2-[(1H-benzimidazol-2-yl)imino]-5,5-diphenylimidazolidin-4-one (3) to be tested, containing 10 mg/mL in DMSO, and the discs were allowed to air dry.” left out
# as §2
# [3] = system: Aspergillus flavus; assay: as above; conditions: Sabouraud's dextrose agar, 72 hours
# Description: as §1, §2
# [4] = system: Escherichia coli; assay: Agar plate disc-diffusion, antibacterial inhibition zone; conditions: nutrient agar, 37° C., 48 hours
# Description: as §1, with “Sterilized filter papers (6 mm in diameter) were wetted with 10 μL of a solution of 2-[(1H-benzimidazol-2-yl)imino]-5,5-diphenylimidazolidin-4-one (3) to be tested, containing 10 mg/mL in DMSO, and the discs were allowed to air dry.” left out
# as §2
# [5] = system: Pseudomonas aeruginosa; assay: as above; conditions: nutrient agar, 37° C., 48 hours
# Description: as §1, with “Sterilized filter papers (6 mm in diameter) were wetted with 10 μL of a solution of 2-[(1H-benzimidazol-2-yl)imino]-5,5-diphenylimidazolidin-4-one (3) to be tested, containing 10 mg/mL in DMSO, and the discs were allowed to air dry.” left out
# as §2
# [6] = system: Bacillus cereus; assay: as above; conditions: nutrient agar, 37° C., 48 hours
# Description: as §1, with “Sterilized filter papers (6 mm in diameter) were wetted with 10 μL of a solution of 2-[(1H-benzimidazol-2-yl)imino]-5,5-diphenylimidazolidin-4-one (3) to be tested, containing 10 mg/mL in DMSO, and the discs were allowed to air dry.” left out
# as §2
# [7] = A = concentration of comp. = 10,000 μL
# [8] = B = concentration of comp. = 30.000 μL
# [9] = C = concentration of comp. = 50,000 μL
smiles,measurement,setting,value
"O=C1N/C(=N/c2nc3ccccc3[nH]2)NC1(c1ccccc1)c1ccccc1 [Compound 3, 2-[(1H-benzimidazol-2-yl)imino]-5,5-diphenylimidazolidin-4-one]","inhibition zone, Staphylococcus aureus",[1]; [7],16 millimeter
same,"inhibition zone, Staphylococcus aureus",[1]; [8],20 millimeter
same,"inhibition zone, Staphylococcus aureus",[1]; [9],30 millimeter
same,"inhibition zone, Chrysosporium keratinophilum",[2]; [7],24 millimeter
same,"inhibition zone, Chrysosporium keratinophilum",[2]; [8],29 millimeter
same,"inhibition zone, Chrysosporium keratinophilum",[2]; [9],49 millimeter
same,"inhibition zone, Aspergillus flavus",[3]; [7],18 millimeter
same,"inhibition zone, Aspergillus flavus",[3]; [8],23 millimeter
same,"inhibition zone, Aspergillus flavus",[3]; [9],35 millimeter
same,"inhibition zone, Escherichia coli",[4]; [7],27 millimeter
same,"inhibition zone, Escherichia coli",[4]; [8],36 millimeter
same,"inhibition zone, Escherichia coli",[4]; [9],50 millimeter
same,"inhibition zone, Pseudomonas aeruginosa",[5]; [7],25 millimeter
same,"inhibition zone, Pseudomonas aeruginosa",[5]; [8],32 millimeter
same,"inhibition zone, Pseudomonas aeruginosa",[5]; [9],43 millimeter
same,"inhibition zone, Bacillus Cereus",[6]; [7],18 millimeter
same,"inhibition zone, Bacillus Cereus",[6]; [8],24 millimeter
same,"inhibition zone, Bacillus Cereus",[6]; [9],38 millimeter
"O=C(O)c1cn(C2CC2)c2cc(N3CCNCC3)c(F)cc2c1=O [Cip., ciprofloxacin]","inhibition zone, Staphylococcus aureus",[1]; [7],42 millimeter
same,"inhibition zone, Staphylococcus aureus",[1]; [8],44 millimeter
same,"inhibition zone, Staphylococcus aureus",[1]; [9],53 millimeter
same,"inhibition zone, Chrysosporium keratinophilum",[2]; [7],29 millimeter
same,"inhibition zone, Chrysosporium keratinophilum",[2]; [8],30 millimeter
same,"inhibition zone, Chrysosporium keratinophilum",[2]; [9],53 millimeter
same,"inhibition zone, Aspergillus flavus",[3]; [7],29 millimeter
same,"inhibition zone, Aspergillus flavus",[3]; [8],30 millimeter
same,"inhibition zone, Aspergillus flavus",[3]; [9],42 millimeter
same,"inhibition zone, Escherichia coli",[4]; [7],30 millimeter
same,"inhibition zone, Escherichia coli",[4]; [8],39 millimeter
same,"inhibition zone, Escherichia coli",[4]; [9],60 millimeter
same,"inhibition zone, Pseudomonas aeruginosa",[5]; [7],29 millimeter
same,"inhibition zone, Pseudomonas aeruginosa",[5]; [8],30 millimeter
same,"inhibition zone, Pseudomonas aeruginosa",[5]; [9],53 millimeter
same,"inhibition zone, Bacillus Cereus",[6]; [7],29 millimeter
same,"inhibition zone, Bacillus Cereus",[6]; [8],31 millimeter
same,"inhibition zone, Bacillus Cereus",[6]; [9],42 millimeter
